# According to PMC6560211, “ApoAI-derived peptide increases glucose tolerance and prevents formation of atherosclerosis in mice” (Diabetologia, 2019):
# No end group written: not given here.
# Legend:
# [1] = Peptide homogeneity (particle size) by dynamic light scattering; format: physicochemical
# Experimental: Peptide (lyophilised powder) produced by Red Glead (Lund, Sweden) was reconstituted in Milli-Q water and then either used directly or mixed in a 1:1 ratio with 6 mol/l guanidine HCl in 2× PBS to give a monodisperse solution, followed by desalting using a column equilibrated with PBS, pH 7.4, using ÄKTAxpress fast protein LC (GE Healthcare, Uppsala, Sweden). Peptide integrity was analysed using circular dichroism spectroscopy. Peptide solubility was assayed at Red Glead using HPLC. Peptide stability in physiologic buffer or blood plasma (human or mouse) over 2 h was assayed at the Science for Life Laboratory (Uppsala, Sweden). For detailed methods, please refer to the electronic supplementary material (ESM) Methods.
# The peptide RG54 was synthesised with natural amino acids and then modified with an acetylation cap on the N-terminus in order to reduce the susceptibility for proteolytic degradation by […] (ESM Fig. 3a). […] Peptide integrity following the denaturation/refolding procedure was confirmed using gel electrophoresis and circular dichroism spectroscopy analyses (ESM Fig. 3d,e) and by peptide stability assays (buffer or plasma) (ESM Fig. 3f).
# ESM Figure 3. Peptide characterization for native or refolded RG54.
# (a) Full peptide sequence. Particle size distribution of RG54 was analysed by DLS and frequency curves generated for Native (b) or Refolded (c) peptide. […]
# INS-1E cells = experiment: Glucose-stimulated insulin secretion assay; format: cell-based, rat; settings: 2 h preincubation with RG54 at 3.3 mmol/l glucose, then 1 h at 20 mmol/l glucose without peptide; ELISA; three independent experiments
# Experimental: INS-1E cells were preincubated for 2 h with HEPES KRB supplemented with 3.3 mmol/l glucose and RG54, then stimulated for 1 h with HEPES KRB supplemented with either 3.3 or 20 mmol/l glucose but no RG54 peptide, and insulin secretion was analysed using ELISA (Mercodia, Uppsala, Sweden). See ESM Methods for more details.
# Fig. 3 RG54 induces skeletal muscle glucose uptake and primes INS-1E cells to increase GSIS. (a) C2C12 skeletal muscle myotubes were incubated in the absence or presence of different concentrations of RG54 or with insulin, followed by glucose uptake measurements. Values are means ± SEM from three independent experiments. *p≤0.05, **p≤0.01, ***p≤0.001 vs control. […] Insulin secretion was measured after 1 h glucose challenge. […]
# Peptide concentration was determined at 205 nm using a NanoDrop 2000c spectrophotometer (Thermo Scientific) and integrity was analysed by Tris-Tricine SDS-PAGE followed by coomassie staining or by circular dichroism spectroscopy (CD). […]
# The primary goal of this study was to investigate the anti -diabetic and anti-atherosclerotic efficacy of a novel ApoA -I derived peptide. Using a range of in vitro models, we assessed the effects of the peptide on HDL formation, cholesterol efflux, insulin secretion, and non -insulin dependent glucose uptake. […] Peptide effects were measured relative to full length ApoA -I and vehicle controls. […]
substance,measurement,setting,value
Ac-AEYHAKATEHLSTLSEKAKPALEDLRQGLLPVLESFKVSFLSALEEYTKKLNTQ [RG54],homogeneity (DLS) after chemical denaturation and refolding,"[1]; 6 mol/l guanidine HCl in 2x PBS 1:1, desalted into PBS pH 7.4",monodisperse preparations
same,"homogeneity, dynamic size range (DLS)","[1]; native peptide reconstituted in Milli-Q water, five individual experiments",significant inter- and intra-sample heterogeneity
same,GSIS compared with control cells,INS-1E cells,up to a twofold increase
